Data: patent US6448034B1, “Production of variant nisin” (priority 1994, dated 2002)
Converted amounts (≈) assume the structure as drawn.

Columns and labels:
[1] = tested on: Lactobacillus helveticus CH-1; assay: Plate diffusion bioassay of cell-free extracts / culture supernatants; format: cell-based; settings: for Activity (% of wt): antimicrobial activity in culture supernatants of gene-replaced strains, plate diffusion bioassays; for nisin activity (% of wild type), gene replacement: functional nisA gene incorporated in the chromosome of FI7990 in place of nisA deletion
Method: 150 μl samples of cell free extracts from strains: 4, FI5876; 5, FI7990; 6, FI8070; 7, FI8198; 8, FI8199 were loaded into wells bored in MRS agar seeded with the indicator strains Lactobacillus helveticus CH-1. Plates were incubated overnight at 42° C. Standards included on the assay plate are: 1,50; 2,100; 3,200; 9,300; 10,400 U/ml.
Nisin activity in Lactococcal strains was assayed by both deferred and direct means. Plate diffusion bioassays were performed as previously described (Dodd et al (1992) Appl. Environ. Microbiol. 58, 3683-3693. Colonies growing on the surface of a GM17 plate were directly assayed by inverting over chloroform for 12 minutes and overlaying with agar seeded with the nisin sensitive L. lactis strain MG1614. Plates were incubated overnight and zone sizes around colonies compared with those of controls. Nisin immunity was determined by streaking cultures on a series of GM17 agar plates containing an increasing concentration of nisin and assessing the degree of growth at the different nisin levels. Control cultures (FI5876, positive) and MG1614 (negative) were included on each plate.
This corresponds to an increase of approximately 50% of nisin A levels, under the conditions used here (Table 1). This higher level of production was not found in the extracts of FI8199, producing the double mutant nisin A/Dha5A,Dha33A. […] In all cases the yield for a particular nisin variant was higher when using this gene replacement strategy than when the equivalent plasmid-encoded gene was employed in a plasmid complementation system (Table 3, Dodd et al (1992) (1993) supra).

[2] = tested on: sensitive L. Lactis strain MG1614; assay: Minimum inhibitory concentration (MIC); format: cell-based; settings: Table 5
FI7847 [nisA-(fs)] = assay: Induction by nisin / nisin variants as inducing agent; format: cell-based, L. lactis; design: Induction: unit not given here; settings: for Induction: strain FI7847
Method: A particularly preferred embodiment of the third aspect of the invention is wherein the cells are cultured in the presence of nisA nisin or a variant nisin which can induce nisin expression. […] By adding sub-inhibitory concentrations of nisin to the growth medium, during fermentation, higher levels of the variant nisin are produced. Any variants that are less efficient as inducing agents benefit from the inclusion of nisin in the growth medium (ie a nisin induction step in the purification procedure). The amount of induction varies depending on the initial induction capacity of any particular variant (with I30W nisin A production more than doubled as a result of induction). Induction may be routinely included in the method as a means of maximising production levels. Any concerns about contamination with the wild type molecule are minimal as the nisin concentration required for induction is negligible compared to the amount of nisin variant being purified. Conveniently, the nisA nisin is a minimum amount that provides maximal induction of nisin production. This amount can be determined empirically by a person skilled in the art. Suitable nisA nisin concentrations for induction in this embodiment are from 1 nM to 500 nM, preferably 10 nM to 250 nM, more preferably 50 nM to 150 nM, most preferably 100 nM.
In some circumstances it is desirable to add nisA nisin as an inducer.

[3] = tested on: Lactobacillus helveticus CH-1; settings: plate diffusion bioassay; plasmid-encoded nisA gene complementing nisA deficiency in host strain FI7332; cited from earlier work
[4] = tested on: sensitive indicator strains; settings: work described in WO 93/20213; cited from earlier work

Compound	Activity (% of wt) [1]	MIC [2] [µg/mL]	Induction (FI7847 [nisA-(fs)]; inducing agent at 100 ng ml^−1)	further results
S5A, H27W (MSTKDFNLDLVSVSKKDSGASPRITSIALCTPGCKTGALMGCNMKTATCWCSIHVSK; listed as Lactococcus sp.)	10 % of wt	–	–	–
H27W (MSTKDFNLDLVSVSKKDSGASPRITSISLCTPGCKTGALMGCNMKTATCWCSIHVSK; listed as Lactococcus sp.)	<1 % of wt	–	–	–
C=C(NC(=O)[C@@H](NC(=O)[C@H](Cc1c[nH]cn1)NC(=O)[C@@H](NC(=O)[C@H](CO)NC(=O)[C@@H]1CS[C@@H](C)[C@H]2NC(=O)[C@H](C)NC(=O)[C@H](NC(=O)[C@H](CCCCN)NC(=O)[C@H](CCSC)NC(=O)[C@H](CC(N)=O)NC(=O)[C@@H]3CS[C@@H](C)[C@@H](NC(=O)[C@H](CCCCN)NC(=O)[C@@H]4CS[C@@H](C)[C@@H](NC(=O)[C@@H]5CSC[C@@H](NC(=O)/C(=C/C)NC(=O)[C@@H](N)[C@@H](C)CC)C(=O)N[C@@H]([C@@H](C)CC)C(=O)NC(=C)C(=O)N[C@@H](CC(C)C)C(=O)N5)C(=O)N5CCC[C@H]5C(=O)NCC(=O)N4)C(=O)NCC(=O)N[C@@H](C)C(=O)N[C@@H](CC(C)C)C(=O)N[C@@H](CCSC)C(=O)NCC(=O)N3)[C@H](C)SC[C@H](NC2=O)C(=O)N[C@@H](CCCCN)C(=O)N1)[C@@H](C)CC)C(C)C)C(=O)N[C@@H](CCCCN)C(=O)O [H27K]	100 % of wt	130 (≈ 38.9 µM)	86	–
ΔM21: variant nisin from nisA M21 deletion (SEQ. ID. No. 41), produced by strain FI8290 (MSTKDFNLDLVSVSKKDSGASPRITSISLCTPGCKTGALMGCNKTATCHCSIHVSK; listed as Lactococcus sp.)	<1 % of wt	–	–	–
C=C1NC(=O)[C@H]([C@@H](C)CC)NC(=O)[C@H](NC(=O)/C(=C/C)NC(=O)[C@@H](N)[C@@H](C)CC)CSC[C@@H](C(=O)N[C@H]2C(=O)N3CCC[C@H]3C(=O)NCC(=O)N[C@H](C(=O)N[C@@H](CCCCN)C(=O)N[C@H]3C(=O)NCC(=O)N[C@@H](C)C(=O)N[C@@H](CC(C)C)C(=O)N[C@@H](CCSC)C(=O)NCC(=O)N[C@H](C(=O)N[C@@H](CC(N)=O)C(=O)N[C@@H](CCSC)C(=O)N[C@@H](CCCCN)C(=O)N[C@H]4C(=O)N[C@@H](C)C(=O)N[C@H]5C(=O)N[C@@H](CS[C@H]4C)C(=O)N[C@@H](Cc4c[nH]cn4)C(=O)N[C@H](C(=O)N[C@@H](CO)C(=O)N[C@H](C(=O)N[C@@H](Cc4c[nH]cn4)C(=O)N[C@H](C(=O)N[C@@H](C)C(=O)N[C@@H](CCCCN)C(=O)O)C(C)C)[C@@H](C)CC)CS[C@H]5C)CS[C@H]3C)CS[C@H]2C)NC(=O)[C@H](CC(C)C)NC1=O [nisin A (Dha33A)]	150 % of wt	250 (≈ 74.5 µM)	17	Induction (FI7847 [nisA-(fs)]; inducing agent at 1 mg ml^−1): 101; increase over nisin A levels ([1]; cell extract from FI8198, plate diffusion bioassay): approximately 50%; zone of inhibition / inhibitory effect compared with parent strain FI5876 ([1]; cell extracts of gene-replaced strains, plate diffusion bioassay): larger than that of the parent strain; nisin activity (% of wild type), gene replacement ([1]; plate diffusion bioassay): 150 % of wild type; nisin activity (% of wild type), complementation [3]: 10 % of wild type; antimicrobial activity against sensitive indicator strains [4]: retained their antimicrobial activity
H31K (MSTKDFNLDLVSVSKKDSGASPRITSISLCTPGCKTGALMGCNMKTATCHCSIKVSK; listed as Lactococcus sp.)	25 % of wt	–	–	–
C=C(NC(=O)[C@@H](NC(=O)[C@H](Cc1c[nH]cn1)NC(=O)[C@@H](NC(=O)[C@H](CO)NC(=O)[C@@H]1CS[C@@H](C)[C@H]2NC(=O)[C@H](C)NC(=O)[C@H](NC(=O)[C@H](CCCCN)NC(=O)[C@H](CCSC)NC(=O)[C@H](CC(N)=O)NC(=O)[C@@H]3CS[C@@H](C)[C@@H](NC(=O)[C@H](CC(C)C)NC(=O)[C@@H]4CS[C@@H](C)[C@@H](NC(=O)[C@@H]5CSC[C@@H](NC(=O)/C(=C/C)NC(=O)[C@@H](N)[C@@H](C)CC)C(=O)N[C@@H]([C@@H](C)CC)C(=O)NC(=C)C(=O)N[C@@H](CC(C)C)C(=O)N5)C(=O)N5CCC[C@H]5C(=O)NCC(=O)N4)C(=O)NCC(=O)N[C@@H](C)C(=O)N[C@@H](CC(C)C)C(=O)N[C@@H](CCSC)C(=O)NCC(=O)N3)[C@H](C)SC[C@H](NC2=O)C(=O)N[C@@H](Cc2c[nH]cn2)C(=O)N1)[C@@H](C)CC)C(C)C)C(=O)N[C@@H](CCCCN)C(=O)O [K12L]	10 % of wt	130 (≈ 38.9 µM)	81	–
C=C(NC(=O)[C@@H](NC(=O)[C@H](Cc1c[nH]cn1)NC(=O)[C@@H](NC(=O)[C@H](CO)NC(=O)[C@@H]1CS[C@@H](C)[C@H]2NC(=O)[C@H](C)NC(=O)[C@H](NC(=O)[C@H](CCCCN)NC(=O)[C@H](CCSC)NC(=O)[C@H](CC(N)=O)NC(=O)[C@@H]3CS[C@@H](C)[C@@H](NC(=O)[C@H](CCCCN)NC(=O)[C@@H]4CS[C@@H](C)[C@@H](NC(=O)[C@@H]5CSC[C@@H](NC(=O)/C(=C/C)NC(=O)[C@@H](N)[C@@H](C)CC)C(=O)N[C@@H]([C@@H](C)CC)C(=O)N[C@@H](C)C(=O)N[C@@H](CC(C)C)C(=O)N5)C(=O)N5CCC[C@H]5C(=O)NCC(=O)N4)C(=O)NCC(=O)N[C@@H](C)C(=O)N[C@@H](CC(C)C)C(=O)N[C@@H](CCSC)C(=O)NCC(=O)N3)[C@H](C)SC[C@H](NC2=O)C(=O)N[C@@H](Cc2c[nH]cn2)C(=O)N1)[C@@H](C)CC)C(C)C)C(=O)N[C@@H](CCCCN)C(=O)O [nisin A (Dha5A)]	100 % of wt	250 (≈ 74.5 µM)	114	Induction (FI7847 [nisA-(fs)]; inducing agent at 1 mg ml^−1): 107; nisin activity (% of wild type), gene replacement ([1]; plate diffusion bioassay): 100 % of wild type; nisin activity (% of wild type), complementation [3]: 25 % of wild type; antimicrobial activity against sensitive indicator strains [4]: retained their antimicrobial activity
C=C(NC(=O)[C@@H](NC(=O)[C@H](Cc1c[nH]cn1)NC(=O)[C@H](Cc1c[nH]c2ccccc12)NC(=O)[C@H](CO)NC(=O)[C@@H]1CS[C@@H](C)[C@H]2NC(=O)[C@H](C)NC(=O)[C@H](NC(=O)[C@H](CCCCN)NC(=O)[C@H](CCSC)NC(=O)[C@H](CC(N)=O)NC(=O)[C@@H]3CS[C@@H](C)[C@@H](NC(=O)[C@H](CCCCN)NC(=O)[C@@H]4CS[C@@H](C)[C@@H](NC(=O)[C@@H]5CSC[C@@H](NC(=O)/C(=C/C)NC(=O)[C@@H](N)[C@@H](C)CC)C(=O)N[C@@H]([C@@H](C)CC)C(=O)NC(=C)C(=O)N[C@@H](CC(C)C)C(=O)N5)C(=O)N5CCC[C@H]5C(=O)NCC(=O)N4)C(=O)NCC(=O)N[C@@H](C)C(=O)N[C@@H](CC(C)C)C(=O)N[C@@H](CCSC)C(=O)NCC(=O)N3)[C@H](C)SC[C@H](NC2=O)C(=O)N[C@@H](Cc2c[nH]cn2)C(=O)N1)C(C)C)C(=O)N[C@@H](CCCCN)C(=O)O [I30W]	<1 % of wt	160 (≈ 46.7 µM)	41	function as inducer of its own biosynthesis (FI7847 [nisA-(fs)]): does not function well as an inducer of its own biosynthesis
H27K, H31K (MSTKDFNLDLVSVSKKDSGASPRITSISLCTPGCKTGALMGCNMKTATCKCSIKVSK; listed as Lactococcus sp.)	10 % of wt	–	–	–
